A word on the IC50: it is the concentration that gives 50% inhibition. The low end stands for greater potency, the high end for weaker potency.

The target of assay [1] is T1, bromodomain protein BRD4 BD1 (Homo sapiens, UniProt O60885).
T1 construct: The proteins BRD4 BD1/BD2 used in the experiment were purchased from Active Motif Company (Cat. No. 31380/31446); purchased Active Motif 31380
As to the kind of experiment: HTRF in vitro assay, inhibitory activity against BRD4 BD1. It is filed as binding. As to conditions: BRD4(1) 30 nM in final system. The method, then: In this example, the half inhibitory activity (IC50) of the compounds of the present invention against the bromodomain protein BRD4 BD1 was determined.
(§1) The inhibitory activity of the compound against BRD4 BD1 was determined by using Homogeneous Time-Resolved Fluorescence (HTRF).
(§2) The proteins BRD4 BD1/BD2 used in the experiment were purchased from Active Motif Company (Cat. No. 31380/31446); Streptavidin XL-665 (#610SAXLA) and EPIgeneous Binding Domain Kit A (#62BDAPEG) were purchased from Cisbio Bioassays Company, [Lys(5,8,12,16)Ac]H4(1-21)-biotin (#64989), and [Lys(5,8,12,16)Ac]H4(1-25) were products of AnaSpec company; OTX015 and ABBV-075 were purchased from SelleckChem. 384 Well ProxiPlate (#6008280) was purchased from PerkinElmer. The multifunctional microplate reader used for the experimental was a product of PerkinElmer, model: Envision 2104. The experimental water was Millipore-Q pure water.
(§3) 10 mM of stock solution of compound in DMSO was diluted to 1 mM with DMSO and stored, and then diluted 10 times with Binding Domain dilution buffer (purchased from Cisbio Bioassays) for use (the concentration of DMSO in the final system was […]), 1:5 gradient dilution, a total of 5 concentrations.
(§4) 4. Test Method: 1 Batch, 2 Duplicate Wells
(§5) • 1) 5 μL of test compound was transferred to 45 μL of Binding Domain dilution buffer. • 2) 2 μL of 10× compound (4 μL Binding Domain dilution buffer: positive control; 6 μL enzyme buffer (purchased from Cisbio Bioassays): negative control) was transferred to the reaction plate. • 3) 4 μL of 5×BRD4(1) or BRD4(2) (30 nM in final system) was added to the reaction plate. • 4) 4 μL of 5×[Lys(5,8,12,16)Ac]H4(1-21)-biotin was added to the reaction plate, and the plate was covered with a film, and incubated at 37° C. for 30 min. • 5) A detection mixture of SA-XL665 (2×) and anti-H3K9me0-Eu(K) (2×) was prepared in detection buffer (purchased from Cisbio Bioassays). • 6) 10 μL of detection mixture (2×) was added to each well, and incubated for 3 h at room temperature, and the mp value was read using a multi-plate reader Envision. The parameters were set as follows.
(TR-FRET usually uses a lanthanide donor and a delayed reading to cut background.)

Assay [2] concerns the target T2, bromodomain protein BRD4 BD2 (Homo sapiens, UniProt O60885).
T2 construct: The proteins BRD4 BD1/BD2 used in the experiment were purchased from Active Motif Company (Cat. No. 31380/31446); purchased Active Motif 31446
Nature of the assay: HTRF in vitro assay, inhibitory activity against BRD4 BD2. It is filed as binding. The following applies: BRD4(2) 30 nM in final system. How it is done: as §1, §2, §3, §4, §5

As to `CC(c1ccccc1)c1cn(C)c(=O)c2c(NC(=O)OC(C)(C)C)c(-c3cnn(C)c3)oc12` (stereo not shown) [Compound A61, tert-butyl (5-methyl-2-(1-methyl-1H-pyrazol-4-yl)-4-oxo-7-(1-phenethyl)-4,5-dihydrofuro[3,2-c]pyridin-3-yl carbamate], the IC50 in assay [1] was 0.1 to 1 µM; in assay [2] it was not above 0.01 µM.

On to `CC(c1ccccc1)c1cn(C)c(=O)c2cc(-c3n[nH]cc3N)oc12` (stereo not shown) [Compound A58, 2-(4-amino-1H-pyrazol-3-yl)-5-methyl-7-(1-phenethyl)furo[3,2-c]pyridin-4(5H)-one], for which the IC50 in assay [1] is 0.1 to 1 µM; in assay [2] it was not above 0.01 µM.

As to `Cn1cc2c(Cc3ccccc3)cn(C)c(=O)c2c1` [Compound A2], the IC50 is 0.1 to 1 µM in assay [1] and 0.01 to 0.1 µM in assay [2].

Take `CC(c1ccccc1)c1cn(C)c(=O)c2c(C(=O)O)c(-c3cnn(C)c3)oc12` (stereo not shown) [Compound A60, 5-methyl-2-(1-methyl-1H-pyrazol-4-yl)-4-oxo-7-(1-phenethyl)-4,5-dihydrofuro[3,2-c]pyridin-3-carboxylic acid]: the IC50 fell in the range of 0.1 to 1 µM in assay [1] and 0.01 to 0.1 µM in assay [2].

In the case of `CC(c1cccc(F)c1F)c1cn(C)c(=O)c2[nH]c(-c3cnn(C4COC4)c3)cc12` (stereo not shown) [Compound A74, 4-(1-(2,3-difluorophenyl)ethyl)-6-methyl-2-(1-(oxetan-3-yl)-1H-pyrazol-4-yl)-1,6-dihydro-7H-pyrrolo[2,3-c]pyridin-7-one], the IC50 was 0.1 to 1 µM in assay [1] and not above 0.01 µM in assay [2].

As to “6-methyl-7-carbonyl-4-(1-phenylethyl)-N-(tetrahydro-2H-pyran-4-yl)-6,7-dihydro-1H-pyrrolo[2,3-c]pyridin-2-carboxamide [Compound A6]”, the figures for the IC50 in assay [1] and in assay [2] were 0.1 to 1 µM and not above 0.01 µM, respectively.

Take `CC(c1ccccc1)c1cn(C)c(=O)c2[nH]c(C(=O)NC3CC3)cc12` (stereo not shown) [Compound A8, N-cyclopropyl-6-methyl-7-oxo-4-(1-phenethyl)-6,7-dihydro-1H-pyrrolo[2,3-c]pyridin-2-carboxamide]: the IC50 in assay [1] is 0.1 to 1 µM; in assay [2] it was not above 0.01 µM.

As for `CC(c1ccc(F)cc1)c1cn(C)c(=O)c2[nH]c(-c3cnn(C(CO)CN4CCN(C)CC4)c3)cc12` (stereo not shown) [Compound A62, 4-(1-(4-fluorophenyl)ethyl)-2-(1-(1-hydroxy-3-(4-methylpiperazin-1-yl)propan-2-yl)-1H-pyrazol-4-yl)-6-methyl-1,6-dihydro-7H-pyrrolo[2,3-c]pyridin-7-one], the IC50 in assay [1] was 0.1 to 1 µM; in assay [2], not above 0.01 µM.

Take `Cn1cc(Oc2ccccc2)c2cc(-c3cnn(C4COC4)c3)[nH]c2c1=O` [Compound A68, 6-methyl-2-(1-(oxetan-3-yl)-1H-pyrazol-4-yl)-4-phenoxy-1,6-dihydro-7H-pyrrolo[2,3-c]pyridin-7-one]: the IC50 was in the range of 0.1 to 1 µM in assay [1] and 0.01 to 0.1 µM in assay [2].

Consider `Cc1ccc(C(C)(C)c2cn(C)c(=O)c3[nH]c(-c4cnn(C5COC5)c4)cc23)cc1` [Compound A69, 6-methyl-2-(1-(oxetan-3-yl)-1H-pyrazol-4-yl)-4-(2-(p-tolyl)propan-2-yl)-1,6-dihydro-7H-pyrrolo[2,3-c]pyridin-7-one], for which the IC50 lay in the range of 0.1 to 1 µM in assay [1] and 0.01 to 0.1 µM in assay [2].

Consider `Cn1cc(C(c2ccccc2)c2ccccc2)c2cc(-c3cnn(C4COC4)c3)[nH]c2c1=O` [Compound A71], for which the IC50 in assay [1] fell in the range of 0.1 to 1 µM; in assay [2], 0.01 to 0.1 µM.

Regarding `CCNC(=O)c1cc2c(-c3c(C(=O)NCC)cnn3C(C)c3ccccc3)cn(C)c(=O)c2[nH]1` (stereo not shown) [Compound A35, N-ethyl-4-(4-(ethylcarbamoyl)-1-(1-phenylethyl)-1H-pyrazol-5-yl)-6-methyl-7-oxo-6,7-dihydro-1H-pyrrolo[2,3-c]pyridin-2-carboxamide], the IC50 was in the range of 0.1 to 1 µM in assay [1] and 0.01 to 0.1 µM in assay [2].

Turning to `COc1ccc(C(c2ccccc2)c2cn(C)c(=O)c3[nH]c(C(=O)Nc4cnn(C)c4)cc23)cc1` (stereo not shown) [Compound A38, 4-((4-methoxyphenyl)(phenyl)methyl)-6-methyl-N-(1-methyl-1H-pyrazol-4-yl)-7-oxo-6,7-dihydro-1H-pyrrolo[2,3-c]pyridin-2-carboxamide], the figures for the IC50 in assay [1] and in assay [2] were 0.1 to 1 µM and 0.01 to 0.1 µM, respectively.

Consider `Cn1cc(Cc2ccccc2)c2c[nH]cc2c1=O` [Compound A1], for which the IC50 fell in the range of 0.1 to 1 µM in assay [1] and 0.01 to 0.1 µM in assay [2].

For `CCNC(=O)c1cc2c(-c3cn(C)nc3C(C)c3ccccc3)cn(C)c(=O)c2[nH]1` (stereo not shown) [Compound A33, N-ethyl-6-methyl-4-(1-methyl-3-(1-phenylethyl)-1H-pyrazol-4-yl)-7-oxo-6,7-dihydro-1H-pyrrolo[2,3c]pyridin-2-carboxamide], the IC50 fell in the range of 0.1 to 1 µM in assay [1] and 0.01 to 0.1 µM in assay [2].

With `CCNC(=O)c1cc2c(-c3c(C4CC4)nn(C)c3C3CC3)cn(C)c(=O)c2[nH]1` [Compound A34, 4-(3,5-dicyclopropyl-1-methyl-1H-pyrazol-4-yl)-N-ethyl-6-methyl-7-oxo-6,7-dihydro-1H-pyrrolo[2,3-c]pyridin-2-carboxamide], the IC50 in assay [1] lay in the range of 0.1 to 1 µM; in assay [2], 0.01 to 0.1 µM.

Regarding `CCNC(=O)c1cc2c(-c3nc4ncccc4n3-c3c(C)cccc3C)cn(C)c(=O)c2[nH]1` [Compound A31, 4-(1-(2,6-dimethylphenyl)-1H-imidazo[4,5-b]pyridin-2-yl)-N-ethyl-6-methyl-7-oxo-6,7-dihydro-1H-pyrrolo[2,3-c]pyridin-2-carboxamide], the values for the IC50 in assay [1] and in assay [2] were 0.01 to 0.1 µM and not above 0.01 µM, respectively.

Turning to `CCNC(=O)c1cc2c(C(O)c3c(C)cccc3C)cn(C)c(=O)c2[nH]1` (stereo not shown) [Compound A23, (4-(2,6-dimethylphenyl)(hydroxy)methyl)-N-ethyl-6-methyl-7-oxo-6,7-dihydro-1H-pyrrolo[2,3-c]pyridin-2-carboxamide], the values for the half-inhibitory concentration (IC50) in assay [1] and in assay [2] were 0.1 to 1 µM and 0.01 to 0.1 µM, respectively.

With `CC(c1ccccc1)c1cn(C)c(=O)c2[nH]c(C(=O)Nc3cnn(C)c3)cc12` (stereo not shown) [Compound A12, 6-methyl-N-(1-methyl-1H-pyrazol-4-yl)-7-oxo-4-(1-phenethyl)-6,7-dihydro-1H-pyrrolo[2,3-c]pyridin-2-carboxamide], the IC50 in assay [1] was 0.1 to 1 µM; in assay [2], not above 0.01 µM.

With `CCNC(=O)n1cc2c(C(OC)c3ccccc3)cn(C)c(=O)c2c1` (stereo not shown) [Compound A4, N-ethyl-7-(methoxy(phenyl)methyl)-5-methyl-4-oxo-4,5-dihydro-2H-pyrrolo[3,4-c]pyridin-2-carboxamide], the IC50 in assay [1] was in the range of 0.1 to 1 µM; in assay [2] it was 0.01 to 0.1 µM.

Regarding `Cn1cc(C(CCO)c2ccccn2)c2cc(C(=O)NC3CC3)[nH]c2c1=O` (stereo not shown) [Compound A9, N-cyclopropyl-4-(3-hydroxy-1-(pyridin-2-yl)propyl)-6-methyl-7-oxo-6,7-dihydro-1H-pyrrolo[2,3-c]pyridin-2-carboxamide], the IC50 lay within 0.1 to 1 µM in assay [1] and 0.01 to 0.1 µM in assay [2].

For the compound “6-methyl-7-carbonyl-4-(1-phenylethyl)-N-(1H-pyrazol-4-yl)-6,7-dihydro-1H-pyrrolo[2,3]pyridin-2-carboxamide [Compound A7]”, the IC50 in assay [1] was 0.1 to 1 µM; in assay [2] it was not above 0.01 µM.

As for `Cn1ccc(NC(=O)c2cc3c(-c4nc5ncccc5n4-c4ccccc4)cn(C)c(=O)c3[nH]2)n1` [Compound A53], the IC50 in assay [1] was in the range of 0.1 to 1 µM; in assay [2], 0.01 to 0.1 µM.

These data come from patent US12649735B2 (HAIHE BIOPHARMA CO., LTD., priority 2019, dated 2026).
